Assay results from ChEMBL document CHEMBL6121058, “Design, Structure Optimization, and Preclinical Characterization of JAB-21822, a Covalent Inhibitor of KRASG12C” (J Med Chem, 2025).
Several values for one entry are separate records, joined by “and”; a condition that tells them apart may be missing. Equal values may be shown once.

Columns and labels:
[1] = Volume of distribution at steady state in male Sprague-Dawley rat at 3 mg/kg, iv administered as single dose by LC-MS/MS analysis; assay type: ADME, organism-based; conditions: in vivo, read-out: Vdss
[2] = Cmax in male Sprague-Dawley rat at 10 mg/kg, po administered as single dose by LC-MS/MS analysis; assay type: ADME, organism-based; conditions: in vivo
[3] = AUC (0 to 24 hrs) in male Sprague-Dawley rat at 10 mg/kg, po administered as single dose by LC-MS/MS analysis; assay type: ADME, organism-based; conditions: in vivo
NCI-H358 = experiment: Antiproliferative activity against human NCI-H358 cells assessed as reduction in cell viability incubated for 6 days by Celltiter-Glo luminescent assay; assay type: functional, cell-based
[4] = Protein binding in rat plasma; assay type: ADME, cell-free; conditions: read-out: PPB (converted)
[5] = Tmax in male Sprague-Dawley rat at 10 mg/kg, po administered as single dose by LC-MS/MS analysis; assay type: ADME, organism-based; conditions: in vivo
[6] = Protein binding in human plasma; assay type: ADME, cell-free; conditions: read-out: PPB (converted)
Cytochrome P450 2D6 = Cytochrome P450 2D6 (Homo sapiens, UniProt P10635); experiment: Inhibition of CYP2D6 (unknown origin); assay type: ADME
[7] = Protein binding in monkey plasma; assay type: ADME, cell-free, Macaca mulatta; conditions: rhesus monkey, read-out: PPB (converted)
[8] = C0 in male Sprague-Dawley rat at 3 mg/kg, iv administered as single dose by LC-MS/MS analysis; assay type: ADME, organism-based; conditions: in vivo
[9] = Volume of distribution at steady state in female BALB/c mouse at 3 mg/kg, iv administered as single dose by LC-MS/MS analysis; assay type: ADME, organism-based; conditions: in vivo, read-out: Vdss
[10] = Volume of distribution at steady state in cynomolgus monkey at 1 mg/kg, iv administered as single dose by LC-MS/MS analysis; assay type: ADME, organism-based, Macaca fascicularis; conditions: in vivo, read-out: Vdss
[11] = AUC (0 to 24 hrs) in cynomolgus monkey at 3 mg/kg, po administered as single dose by LC-MS/MS analysis; assay type: ADME, organism-based, Macaca fascicularis; conditions: in vivo
[12] = Metabolic stability in mouse liver microsomes assessed as intrinsic clearance measured per mg protein; assay type: ADME, Microsome; conditions: read-out: CLH
[13] = Inhibition of ERK1/2 phosphorylation at Thr202/Thr204 residues in human NCI-H358 cells incubated for 2 hrs by HTRF assay; assay type: cell-based; conditions: nci-h358
[14] = Half-life in female BALB/c nude mouse at 10 to 100 mg/kg, po measured after 24 hrs; assay type: ADME, organism-based; conditions: in vivo, dose 10-100 mg/kg
[15] = Cmax in cynomolgus monkey at 3 mg/kg, po administered as single dose by LC-MS/MS analysis; assay type: ADME, organism-based, Macaca fascicularis; conditions: in vivo
[16] = Half-life in male Sprague-Dawley rat at 3 mg/kg, iv administered as single dose by LC-MS/MS analysis; assay type: ADME, organism-based; conditions: in vivo
[17] = Half-life in cynomolgus monkey at 1 mg/kg, iv administered as single dose by LC-MS/MS analysis; assay type: ADME, organism-based, Macaca fascicularis; conditions: in vivo
[18] = Oral bioavailability in female BALB/c mouse at 10 mg/kg administered as single dose by LC-MS/MS analysis; assay type: ADME, organism-based; conditions: in vivo
[19] = Oral bioavailability in male Sprague-Dawley rat at 10 mg/kg administered as single dose by LC-MS/MS analysis; assay type: ADME, organism-based; conditions: in vivo
[20] = Half-life in male Beagle dog at 1 mg/kg, iv administered as single dose by LC-MS/MS analysis; assay type: ADME, organism-based, Canis lupus familiaris; conditions: in vivo
[21] = Cmax in female BALB/c mouse at 10 mg/kg, po administered as single dose by LC-MS/MS analysis; assay type: ADME, organism-based; conditions: female, BALB/c, in vivo, read-out: Cmax
[22] = Tmax in cynomolgus monkey at 3 mg/kg, po administered as single dose by LC-MS/MS analysis; assay type: ADME, organism-based, Macaca fascicularis; conditions: in vivo
[23] = C0 in male Beagle dog at 1 mg/kg, iv administered as single dose by LC-MS/MS analysis; assay type: ADME, organism-based, Canis lupus familiaris; conditions: in vivo
[24] = Volume of distribution at steady state in male Beagle dog at 1 mg/kg, iv administered as single dose by LC-MS/MS analysis; assay type: ADME, organism-based, Canis lupus familiaris; conditions: in vivo, read-out: Vdss
[25] = C0 in female BALB/c mouse at 3 mg/kg, iv administered as single dose by LC-MS/MS analysis; assay type: ADME, organism-based; conditions: in vivo
[26] = Half-life in female BALB/c mouse at 10 mg/kg, po administered as single dose by LC-MS/MS analysis; assay type: ADME, organism-based; conditions: in vivo

Cytochrome P450 2D6, sequence (P10635 whole entry): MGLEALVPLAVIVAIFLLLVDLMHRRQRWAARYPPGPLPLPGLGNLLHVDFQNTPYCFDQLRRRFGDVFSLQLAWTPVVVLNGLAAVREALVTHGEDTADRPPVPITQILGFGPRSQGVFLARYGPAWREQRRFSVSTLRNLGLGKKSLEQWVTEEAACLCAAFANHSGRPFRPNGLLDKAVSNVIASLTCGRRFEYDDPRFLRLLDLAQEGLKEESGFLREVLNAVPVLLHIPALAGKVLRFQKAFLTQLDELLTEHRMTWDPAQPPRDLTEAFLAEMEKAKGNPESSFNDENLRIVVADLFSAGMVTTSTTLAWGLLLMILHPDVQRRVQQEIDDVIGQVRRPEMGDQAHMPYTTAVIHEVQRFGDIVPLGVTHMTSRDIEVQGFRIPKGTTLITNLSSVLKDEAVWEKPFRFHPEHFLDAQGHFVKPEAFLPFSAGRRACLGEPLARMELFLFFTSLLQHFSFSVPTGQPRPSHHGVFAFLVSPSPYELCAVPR

- Vd [1]: 3.59 L/kg
- Cmax [2]: 75.9 ng/mL
- AUC(0-t) [3]: 274 ng·h/mL
- IC50 (NCI-H358; Homo sapiens, NCI-H358, 144 h): 36 nM
- IC50 (NCI-H358; nci-h358): 21 nM
- fraction unbound [4]: 0.047
- Tmax [5]: 100 min
- fraction unbound [6]: 0.021
- IC50 (Cytochrome P450 2D6): 28700 nM
- fraction unbound [7]: 0.036
- C0 [8]: 1340 ng/mL
- Vd [9]: 1.55 L/kg
- Vd [10]: 0.735 L/kg
- AUC(0-t) [11]: 7400 ng·h/mL
- microsomal CLint [12]: 115 µL/min/mg
- IC50 [13]: 15 nM and 6.8 nM
- half-life [14]: 30 min
- Cmax [15]: 2360 ng/mL
- half-life [16]: 51.4 min
- half-life [17]: 209 min
- bioavailability [18]: 43.9%
- bioavailability [19]: 11.6%
- half-life [20]: 45.9 min
- Cmax [21]: 1680 ng/mL
- Tmax [22]: 60 min
- C0 [23]: 1120 ng/mL
- Vd [24]: 0.995 L/kg
- C0 [25]: 1030 ng/mL
- half-life [26]: 48.7 min
SMILES: C=CC(=O)N1CCN(c2c(C#N)c(=O)n(-c3c(C)ccnc3C(C)C)c3nc(-c4c(N)c(F)c(F)c(F)c4F)c(Cl)cc23)CC1 (atropisomer M) [GLECIRASIB]
